Measurements reported in publication PMC3367201 (Nucleic Acids Research, 2012).

Target: Hp ND-AspRS (non-discriminating aspartyl-tRNA synthetase) (Helicobacter pylori, UniProt P56459)
Test: inhibition of tRNA aminoacylation with […] L-Asp
Format: biochemical

Hp ND-AspRS (non-discriminating aspartyl-tRNA synthetase), sequence (P56459 whole entry): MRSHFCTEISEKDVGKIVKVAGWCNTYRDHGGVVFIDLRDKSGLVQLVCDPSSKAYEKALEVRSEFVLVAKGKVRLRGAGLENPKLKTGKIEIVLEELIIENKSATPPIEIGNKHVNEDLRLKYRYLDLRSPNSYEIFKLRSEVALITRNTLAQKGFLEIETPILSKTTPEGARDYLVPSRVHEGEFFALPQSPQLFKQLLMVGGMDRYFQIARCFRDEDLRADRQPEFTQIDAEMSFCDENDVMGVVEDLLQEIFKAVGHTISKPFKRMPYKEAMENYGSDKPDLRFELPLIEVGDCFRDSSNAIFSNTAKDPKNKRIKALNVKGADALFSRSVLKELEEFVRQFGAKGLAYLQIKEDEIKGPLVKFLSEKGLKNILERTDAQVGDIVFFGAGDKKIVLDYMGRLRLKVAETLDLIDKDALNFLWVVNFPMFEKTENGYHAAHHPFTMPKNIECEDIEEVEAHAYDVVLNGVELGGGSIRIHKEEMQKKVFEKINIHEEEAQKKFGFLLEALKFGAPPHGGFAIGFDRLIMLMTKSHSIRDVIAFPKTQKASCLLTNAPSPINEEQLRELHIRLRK

## Nc1ncnc2c1ncn2[C@@H]1O[C@H](COP(=O)(O)OC[C@@H](N)CC(=O)O)[C@@H](O)[C@H]1O [Asp-ol-AMP]
  Ki: 8 µM
